For 8 substances, IC50 results are on record in patent US7390915B1, “Phosphine transition metal complex having ferrocene skeleton, process for making the same, and anti-cancer agent” (Nippon Chemical Industrial Co., Ltd, priority 2007, dated 2008).

The experiment has as its system HL-60 (human acute myeloid leukemia cells). Nature of the experiment: Evaluation of anti-cancer activity: HL-60 cell survival by modified Mosmann (MTT) method. The class given is cell-based. The settings on record: read-out: IC50 (concentration of inhibitor that inhibits cell growth to 50%), HL-60 cells, 24 hours culture with compound, average of at least three experiments. Here is the method:
<Evaluation of Anti-Cancer Activity>
HL-60 (human acute myeloid leukemia cells) as the cancerous cells was cultured under a 5% CO2 atmosphere in a wet incubator at 37° C. in a Roswell Park Memorial Institute medium (RPMI 1640) supplemented with 10% fetal bovine serum and 1% antibiotic and antimycotic.
The cells were washed with PBS and counted. A 1×10^6 cells/mL suspension was then prepared using the same medium. The suspension was added to a sterilized 96-well microplate at a density of 50000 cells per well.
The number of survived cells was then evaluated by a modified Mosmann method (T. Mosmann, J. Immunol. Method (1983) 65, 55-63). That is, a solution of a tetrazolium salt (3,[4,5-dimethylthiazol-2-yl]-2,5-diphenyltetrazolium bromide (MTT)) was added, and the culture was continued for 3 hours under the same conditions. Formazan crystals generated by enzymatic activity of the mitochondria in the cells were dissolved in 0.04 mol HCl/isopropyl alcohol and the absorbance at 595 nm was measured using a microplate reader (Bio-Rad 550). In order to eliminate the background, the absorbance at 630 nm was measured and subtracted from the observed absorbance at 595 nm. […] Note that in calculating the IC50 value, the average of values of at least three experiments conducted under the same conditions was used.
As to “bis(1,1′-bis-(diphenylphosphino)-2,2-bis-[(S)-4-isobutyl-2-yl]ferrocene)digold(I)dichloride [Example 7]”, the IC50 worked out at 2.1 µM. Under “bis(1,1′-bis-(diphenylphosphino)-2,2-bis-[(S)-4-sec-butyl-2-yl]ferrocene)digold(I)dichloride [Example 8]” stands 3.54 µM; under “Bis((S)-1-((R)-2-(dicyclohexylphosphino)ferrocenyl)ethyldiphenylphosphine)gold(I)chloride [Example 4]”, 9.21 µM. Consider “Bis((R)-1-((S)-2-(dicyclohexylphosphino)ferrocenyl)ethyldicyclohexylphosphine)gold(I)chloride [Example 1]”, for which the IC50 turned out to be 19.2 µM. Take “bis(1,1′-bis-(diphenylphosphino)-2,2-bis-[(S)-4-isopropyl-2-yl]ferrocene)digold(I)dichloride [Example 5]”: the IC50 was determined as 0.803 µM. As to “Bis((R)-1-((S)-2-(diphenylphosphino)ferrocenyl)ethyldicyclohexylphosphine)gold(I)chloride [Example 2]”, the IC50 was 8.69 µM. As for “bis(1,1′-bis-(diphenylphosphino)-2,2-bis-[(S)-4-tert-butyl-2-yl]ferrocene)digold(I)dichloride [Example 6]”, the IC50 was found to be 2.31 µM. The result for “Bis((R)-1-((S)-2-(dicyclohexylphosphino)ferrocenyl)ethyldiphenylphosphine)gold(I)chloride [Example 3]” reads 7.92 µM.
